Several values for one entry are separate records, joined by “and”; a condition that tells them apart may be missing. Equal values may be shown once.

Common to all, as to type: physicochemical
Data set [1] can be described thus: Absorbance spectra of the dyes in DCM (UV-Visible/NIR spectrophotometer). The text has this: (§1) The absorbance spectra in FIG. 2 and FIG. 5 were obtained in DCM on a JASCO V-770 UV-Visible/[…] spectrophotometer with a 2000 nm/min or 4000 nm/min scan rate. Plotted are the baseline corrected and normalized data. The emission spectra in FIG. 2 were taken in DCM on either a Horiba Instruments PTI QuantaMaster Series fluorometer (6), a Fluoromax-3 spectrofluorometer (1, 3-5), or home-built InGaAs array detector (Princeton Instruments). For 6 the following parameters were used: ex. 610 nm, emission collected from 620-900 nm, slits 5 nm, step size 1 nm, integration time 1 s. Plotted is the DCM corrected, baseline corrected, normalized data. For 1, and 3-5, the following parameters were used: slits 5 nm, step size 1 nm, integration time, 0.25 s. Excitation values and emission collection were as follows: 1 (ex. 460, collection 470-800 nm), 5 (ex. 675 nm, collection 685-950 nm), 4 (ex. 840 nm, emission 850-1100 nm), 3 (ex. 730 nm, emission 950-1400). Plotted are the baseline corrected, normalized data. The emission spectra in FIG. 5 were taken in dichloromethane on a Horiba Instruments QuantaMaster Series fluorometer with excitation slits: 15 nm, emission slits: 30 nm, step size: 1 nm, integration time: 0.1 s and excitation wavelengths as indicated.

Data set [2] in a line: Emission spectra of the dyes in DCM. Particulars: dichloromethane, dyes 1, 3-6 and reference dyes.
Source text: as §1

The nature of data set [3]: Absolute fluorescence quantum yield using an integrating sphere. Particulars: dichloromethane; for ΦF (fluorescence quantum yield): absolute value. Here is the method:
Polymethine dyes disclosed herein are characterized with respect to their photophysics including absorption, emission, extinction coefficient, quantum yields, and fluorescence lifetime. All quantum yields values obtained are absolute quantum yields values measured using an integrating sphere. Photostabilities are evaluated by sample irradiation with high powered LEDs. Additionally, solvatochromism, solvent compatibility, and stability are assessed.

A short description of data set [4]: Photobleaching under continuous-wave irradiation at 532 nm. Particulars: dichloromethane. As for the experimental part: Photostabilities of the Flay series were measured under continuous-wave irradiation (532 nm, 0.53 fluence).
Data set [5] in a line: Stability of Flav7 in acetonitrile in the presence of methanol, ethanol or water (absorption over time, LCMS). As to conditions: for change of absorption over time: over 4 hours. As for the experimental part: Concerned about the structure's susceptibility to nucleophilic attack, the stability of Flav7 in the presence of methanol, ethanol, and water was investigated. 3 was dissolved in acetonitrile, and 1-50% water, ethanol, or methanol was introduced. Changes in absorption spectra over time were monitored. […] Further evidence that 3 is stable to water include UV/Vis monitoring of the dose-dependent addition of water to 3 in acetonitrile followed by water removal.
(§2) Finally, the photoluminescence of Flav7 was compared to the prominent SWIR polymethine dyes, IR-26 and IR-1061. IR-26 has been widely-employed as a standard for this region, while IR-1061 has recently been the active component of nanomaterials for […] in vivo imaging. Despite numerous studies which rely on these dyes, the reported ΦF for IR-26 have been inconsistent, and the ΦF of IR-1061 has yet to be thoroughly characterized. Consequently, to establish that Flav7 is more emissive than existing SWIR polymethine dyes, each dye's emission was directly compared using a SWIR camera. We prepared solutions of 3, IR-26, and IR-1061 in dichloromethane with identical absorbance at 808 nm, excited with a diffuse 808 nm laser, and imaged their emission over 1000-1500 nm.

Data set [6] in a line: Comparative emission imaging with a SWIR InGaAs camera, 808 nm excitation.
Source text: as §2
Spatially dispersed 808 nm illumination was used to image 1 ml samples in 2.5 mL cuvettes of the SWIR dyes alongside a DCM blank. Each dye was compared at the same position to ensure consistent camera illumination. SWIR images were collected on an InGaAs camera (Princeton Instruments, NIRvana 640) with a 1000 nm long-pass filter. The camera was cooled to −80° C., the analog to digital (AD) conversion rate set to 2 MHz, the gain set to high, and different exposure times used to achieve sufficient signal and/or frame rates. All images were background- and blemish-corrected within the LightField imaging software. […]

A short description of another data set: Solvatochromism of Flav7. The text has this:
This family of flavylium dyes has photophysical qualities that are complementary to commonly used cyanine dyes. However, the premier dye in the series is the Flav7 (3) as few emissive polymethine dyes exist in this region. Thus, we thoroughly investigated its stability. First, we explored the solvatochromism of Flav7. […] However, in polar solvents, spectral broadening and accentuation of a high-energy shoulder were observed. This behavior is consistent with SWIR polymethine dyes that experience ground state symmetry breaking due to stabilization of an asymmetric electronic structure.

`CN(C)c1ccc2c(c1)OC(c1ccccc1)=C/C2=C\C=C1/CCCC(/C=C/c2cc(-c3ccccc3)[o+]c3cc(N(C)C)ccc23)=C1Cl.[O-][Cl+3]([O-])([O-])[O-]` [Dye 3, 4-((E)-2-((E)-2-chloro-3-(2-((E)-7-(dimethylamino)-2-phenyl-4H-chromen-4-ylidene)ethylidene)cyclohex-1-en-1-yl)vinyl)-7-(dimethylamino)-2-phenylchromenylium perchlorate]: the “absorption red shift past IR-27” value in data set [1] was approximately 40 nm. Further, in data set [1] (dichloromethane, in example paragraphs the longest-wavelength absorbance peak), the “absorption (DCM) λmax” value turned out to be 1026 nm. Moreover, the “emission (DCM) λmax” value in data set [2] was 1045 nm; in data set [2] (listed as Flav7), 1061 nm and 1045 nm. Also, the “QE, εΦF (quantum efficiency)” value in data set [3] was 1200 M⁻¹ cm⁻¹; in data set [3] (listed as Flav7) it was 1,200 M^−1cm^−1. Further, the “ΦF (fluorescence quantum yield)” value in data set [3] is 0.53±0.03% and 0.53%; in data set [3] (listed as Flav7), 0.53% and 0.53±0.3%. The “relative rate, krel (photobleaching)” value in data set [4] (532 nm irradiation) is 40. ± 6. Also, the “raw rate, k (photobleaching)” value in data set [4] (continuous-wave irradiation 532 nm, 0.53 fluence) is given as 28. ± 3. s^−1 × 10^−3. Besides, the “ε at 532 nm” value in data set [4] amounted to 1.4 ± 0.2 M^−1cm^−1 × 10^4. Also, in data set [5] (0.1 mg/mL in acetonitrile with 10% water), the “degradation by LCMS over time” value is “no appreciable degradation”. Besides, the “change of λmax,abs at 1013 nm” value in data set [5] (acetonitrile with 1% methanol) is recorded as “rapid loss”. Also, the “change of absorption over time” value in data set [5] (acetonitrile with 10% ethanol) is listed as “slight loss”; in data set [5] (acetonitrile with 10% water), “no significant change”. The “absorbance at 1013 nm after water addition and water removal” value in data set [5] (acetonitrile, dose-dependent water addition followed by water removal, UV/Vis) was “restored upon water removal”. Besides, the “brightness relative to IR-26” value in data set [6] is recorded as 13 times. Moreover, the “emission intensity compared with the other SWIR dyes” value in data set [6] (dichloromethane, identical absorbance at 808 nm, emission 1000-1500 nm) was “brightest of the three dyes”. Also, in “Solvatochromism of Flav7” (dichloromethane, dimethyl sulfoxide, acetonitrile, tetrahydrofuran, acetone), the “variation of λmax,abs between solvents” value was “minimal variation”. Further, the behaviour in methanol entry in “Solvatochromism of Flav7” (methanol as solvent) is “immediate color change”.

Source of the values: patent US11292778B2, “Heterocyclyl polymethine IR chromophores” (The Regents of the University of California, priority 2017, dated 2022).
